Assay results from patent publication US8906952B2, “Indole derivative or pharmaceutically acceptable salt thereof, preparation method thereof, and pharmaceutical composition for preventing or treating metabolic diseases containing same as active ingredient” (Korea Research Institute of Bioscience and Biotechnology, priority 2011, dated 2014).
pIC50: −log10 of the molar value.

How the values were obtained:
[1] = system: HepG2 cells; assay: DGAT inhibitory effect in HepG2 cells (triglyceride production from [14C]glycerol); format: cell-based; conditions: Homo sapiens; for activity at 10 µM: HepG2, 6 h, DMSO control = 100, read-out: Triglyceride production rate (%)/HepG2 cells at 10 μM; for inhibition at 10 µM: HepG2, 10 μM, read-out: biosynthesis inhibition rate of triglyceride
Method: To investigate inhibition effect on intracellular DGAT enzyme activity of the compounds obtained in Examples 1-51, intracellular DGAT enzyme activity was measured using human-derived liver HepG2 cells.
HepG2 cells were purchased from ATCC, and cultured in 37° C., 5% CO2 incubator including minimum essential medium (2 mM L-glutamine, earle's BSS adjusted to contain 1.5 g/L sodium bicarbonate, 0.1 mM nonessential amino acids, and 1 mM sodium pyruvate) added with 10% fetal bovine serum (FBS) and 1% antibiotic (100 U/ml penicillin and 100 µg/ml streptomycin).
The intracellular DGAT enzyme activity was measured based on an amount of triglycerides produced in the cultured HepG2 cells, by adding 10 μM enzyme inhibitor compounds obtained in Examples 1-51, respectively, and then determining the effect of the enzyme inhibitors according to reduction rate of the triglyceride production.
Specifically, cells were seeded 1×10^6 cell/ml per well of the 24 well culture plate, and 24 hours after incubation, medium was exchanged with FBS-free DMEM medium, and sample of 0.2 mCi [^14C]glycerol (Amersham) was added as substrate, and the reaction was allowed to occur for 6 hr. The induced production of triglyceride was catalyzed by the DGAT enzyme, and DGAT enzyme activity was determined based on the amount of production of triglyceride which was measured based on the amount of radiation. The sample was dissolved in dimethylsulfoxide (DMSO) to be used, and the control group in the triglyceride production reaction was reacted with dimethylsulfoxide only (i.e., without sample), and the amount of the triglyceride production rate was set to 100.
After the reaction completed, the substrate [^14C]glycerol which was either not absorbed into cells or not used for the reaction, were removed with phosphate-buffer-saline (PBS), and 0.5 ml extraction solvent (hexane:isopropanol=3:2, v:v) was added to extract full fat containing triglycerides. With 0.5 ml extraction solvent, extract was obtained two times for 30 min each, and 1 ml of the extract was concentrated with nitrogen gas. After removing the extraction solvent, the total fat was dissolved in organic solvent (chloroform:methanol=2:1) and spotted with thin-layer chromatography (TLC:silica gel 60F254, thickness: 0.5 mm, Merck) on the developing solvent (hexane:diethyl ether:acetic acid=80:20:1, v: v: v). Triglycerides (Rf value: 0.4) were isolated on TLC, and after exposing the TLC plate to the film with photosensitivity to radiation energy (imaging plate' Fujifilm, BMS-MS 2040) for 3 hr, the amount of [^14C] radiation of triglyceride was measured by imaging analysis (FLA 7000). The remaining cells after the extraction were dissolved in 0.3 ml 0.1 N sodium hydroxide for use in the measurement of protein concentration of the cells used for the reaction.
The experimental errors among the respective experimental groups were compensated with the experimental value which was obtained by dividing the measured radiation of triglyceride by protein concentration, and the production rate of triglyceride according to the respective compounds of Examples 1-51 are tabulated below.

[2] = target: T1, human DGAT1 (Homo sapiens, UniProt O75907); assay: DGAT enzyme inhibition test, hDGAT1 enzyme from sf9 insect cells; format: biochemical; conditions: enzyme from sf9 cells overexpressing hDGAT1; read-out: hDGAT-1 (sf9) IC50
T1 construct: made in house; host or cells: sf9 insect cells
T1 sequence (O75907 1-488): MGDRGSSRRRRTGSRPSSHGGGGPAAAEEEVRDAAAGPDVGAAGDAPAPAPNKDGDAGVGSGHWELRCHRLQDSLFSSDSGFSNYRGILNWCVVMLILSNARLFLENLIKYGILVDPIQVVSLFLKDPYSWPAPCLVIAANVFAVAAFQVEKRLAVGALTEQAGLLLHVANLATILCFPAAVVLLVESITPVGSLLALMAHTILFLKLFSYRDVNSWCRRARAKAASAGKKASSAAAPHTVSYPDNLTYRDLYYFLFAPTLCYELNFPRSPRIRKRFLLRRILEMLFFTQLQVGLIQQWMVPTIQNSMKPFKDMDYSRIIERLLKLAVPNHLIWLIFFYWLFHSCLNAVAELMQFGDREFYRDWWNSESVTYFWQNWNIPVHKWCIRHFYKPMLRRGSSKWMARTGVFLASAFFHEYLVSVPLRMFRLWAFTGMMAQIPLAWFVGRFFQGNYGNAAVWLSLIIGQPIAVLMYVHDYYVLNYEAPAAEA
Description: To investigate inhibitory effect of the compounds of Examples 1-33 against DGAT enzyme activity, DGAT enzyme inhibition and DGAT2 selectivity were investigated using zymogen including:
1) hDGAT1 and hDGAT2 enzymes, derived from insect cell overexpressing human DGAT1 and DGAT2 (‘sf9’), respectively,
To be specific, for the purpose of measuring human-derived DGAT enzyme inhibitory activity, using the zymogen, including enzymes derived from insect cell overexpressing human DGAT1 and DGAT2 (‘sf9’), microsomal protein isolated from human duodenal adenocarcinoma (‘Hutu 80’), and microsomal protein isolated from rat, and according to Coleman et al., (Methods Enzymol., 98-103, 1992), and substrate including 1,2-diacylglycerol(Sigma, D0138) and [^14C]palmitoyl-CoA (Amersham, CFA583), the amount of radiation of [^14C]triacylglycerol produced after enzymatic reaction was measured.
To be more specific, to the reaction solution containing 175 mM Tris-HCl (pH 8.0), 20 μl bovine serum albumin (10 mg/ml), 100 mM magnesium chloride, 30 μM [^14C]palmitoyl CoA (0.02 μCi, Amersham) and 200 μM 1,2-dioleoylglycerol, reagent dissolved in dimethylsulfoxide (10.0 μl) was added. After introducing 100 to 200 μg isolated microsomal protein and allowing the same to react at 25° C. for 10 min, the reaction was stopped by adding 1.5 ml stop solution (2-propanol:heptane:water=80:20:2, v:v:v). To isolate the product of the reaction (i.e., [^14C]triacylglycerol), 1 ml heptane and 0.5 ml distilled water were added and then decocted. After taking 1 ml supernatant, 2 ml alkaline ethanol solution (ethanol:0.5 N sodium hydroxide:water=50:10:40, v:v:v) were added and then decocted. After taking 0.65 ml supernatant from the decoction, the amount of radiation was measured with liquid scintillation counter (LSC). The DGAT inhibitory activity was calculated with Mathematical Expression 1 below:
T denotes cpm of experimental group in which the enzymatic reaction solution was treated with the sample,
C denotes cpm of control group in which the enzymatic reaction solution was not treated with the sample, and
B denotes cpm of control group treated with the sample without zymogen.

CC(C)N(NC(=O)c1cccc(OCCN2CCOCC2)c1)C(=O)/C=C/c1cn(C(=O)OC(C)(C)C)c2ccccc12 [Example 8, (E)-tert-butyl 3-(3-(1-isopropyl-2-(3-(2-morpholinoethoxy)benzoyl)hydrazinyl)-3-oxoprop-1-enyl)-1H-indole-1-carboxylate]
activity at 10 µM [1]: 85.2% | pIC50 [2]: < 4.00

COC(=O)COc1cccc(C(=O)NN(C(=O)/C=C/c2cn(C(=O)OC(C)(C)C)c3ccccc23)C(C)C)c1 [Example 18, (E)-tert-butyl 3-(3-(1-isopropyl-2-(3-(2-methoxy-2-oxoethoxy)benzoyl)hydrazinyl)-3-oxoprop-1-enyl)-1H-indole-1-carboxylate]
activity at 10 µM [1]: 102% | pIC50 [2]: < 4.00

CC(C)N(NC(=O)c1cccc(F)c1)C(=O)/C=C/c1cn(C(=O)OC(C)(C)C)c2ccccc12 [Example 15, (E)-tert-butyl 3-(3-(2-(3-fluorobenzoyl)-1-isopropylhydrazinyl)-3-oxoprop-1-enyl)-1H-indole-1-carboxylate]
activity at 10 µM [1]: 71.2% | inhibition at 10 µM [1]: 20 to 30% | pIC50 [2]: 4.69

CC(C)N(NC(=O)c1ccc(Br)cc1)C(=O)/C=C/c1cn(C(=O)OC(C)(C)C)c2ccccc12 [Example 13, (E)-tert-butyl 3-(3-(2-(4-bromobenzoyl)-1-isopropylhydrazinyl)-3-oxoprop-1-enyl)-1H-indole-1-carboxylate]
activity at 10 µM [1]: 87.1% | pIC50 [2]: 4.69

CC(C)N(NC(=O)c1ccccc1)C(=O)/C=C/c1c[nH]c2ccccc12 [Example 22, (E)-N′-(3-(1H-indol-3-yl)acryloyl)-N′-isopropylbenzohydrazide]
activity at 10 µM [1]: 116% | pIC50 [2]: < 4.00

CC(C)N(NC(=O)c1ccccc1)C(=O)/C=C/c1cn(C(=O)CC(C)(C)C)c2ccccc12 [Example 33, (E)-N′-(3-(1-(3,3-dimethylbutanoyl)-1H-indol-3-yl)acryloyl)-N′-isopropylbenzohydrazide]
activity at 10 µM [1]: 78.2% | inhibition at 10 µM [1]: 20 to 30% | pIC50 [2]: 5.28

CC(C)N(NC(=O)c1ccccc1)C(=O)CCc1c[nH]c2ccccc12 [Example 23, N′-(3-(1H-indol-3-yl)propanoyl)-N′-isopropylbenzohydrazide]
activity at 10 µM [1]: 87.7% | pIC50 [2]: 4.02

CC(C)=CCn1cc(/C=C/C(=O)N(NC(=O)c2ccc(F)cc2)C(C)C)c2ccccc21 [Example 49, (E)-4-fluoro-N′-isopropyl-N′-(3-(1-(3-methylbut-2-enyl)-1H-indol-3-yl)acryloyl)benzohydrazide]
activity at 10 µM [1]: 55.7% | pIC50 [2]: 5.82

CC(C)N(NC(=O)c1cccnc1)C(=O)/C=C/c1cn(C(=O)OC(C)(C)C)c2ccccc12 [Example 3, (E)-tert-butyl 3-(3-(1-isopropyl-2-nicotinoylhydrazinyl)-3-oxoprop-1-enyl)-1H-indole-1-carboxylate]
activity at 10 µM [1]: 66.8% | inhibition at 10 µM [1]: 30 to 40% | pIC50 [2]: < 4.00

CC(=O)n1cc(/C=C/C(=O)N(NC(=O)c2ccccc2)C(C)C)c2ccccc21 [Example 30, (E)-N′-(3-(1-acetyl-1H-indol-3-yl)acryloyl)-N′-isopropylbenzohydrazide]
activity at 10 µM [1]: 89% | pIC50 [2]: 4.19

CC(C)N(NC(=O)c1ccccc1)C(=O)/C=C/c1cn(C)c2ccccc12 [Example 25]
activity at 10 µM [1]: 88.6% | pIC50 [2]: 4.55

Cc1ccc(C(=O)NN(C(=O)/C=C/c2cn(C(=O)OC(C)(C)C)c3ccccc23)C(C)C)cc1 [Example 48, (E)-tert-butyl 3-(3-(1-isopropyl-2-(4-methylbenzoyl)hydrazinyl)-3-oxoprop-1-enyl)-1H-indole-1-carboxylate]
activity at 10 µM [1]: 96.7% | pIC50 [2]: 5.01

CC(C)N(NC(=O)c1cccc(OCC(N)=O)c1)C(=O)/C=C/c1cn(C(=O)OC(C)(C)C)c2ccccc12 [Example 20, (E)-tert-butyl 3-(3-(2-(3-(2-amino-2-oxoethoxy)benzoyl)-1-isopropylhydrazinyl)-3-oxoprop-1-enyl)-1H-indole-1-carboxylate]
activity at 10 µM [1]: 109% | pIC50 [2]: < 4.00

CC(C)N(NC(=O)c1ccccc1)C(=O)/C=C/c1cn(Cc2ccccc2)c2ccccc12 [Example 26, (E)-N′-(3-(1-benzyl-1H-indol-3-yl)acryloyl)-N′-isopropylbenzohydrazide]
activity at 10 µM [1]: 59.8% | inhibition at 10 µM [1]: 30 to 40% | pIC50 [2]: 4.87

CC(C)(C)OC(=O)n1cc(/C=C/C(=O)NNC(=O)c2ccccc2)c2ccccc21 [Example 16, (E)-tert-butyl 3-(3-(2-benzoylhydrazinyl)-3-oxoprop-1-enyl)-1H-indole-1-carboxylate]
activity at 10 µM [1]: 61.7% | inhibition at 10 µM [1]: 30 to 40% | pIC50 [2]: < 4.00

COc1cccc(C(=O)NN(C(=O)/C=C/c2cn(C(=O)OC(C)(C)C)c3ccccc23)C(C)C)c1 [Example 6, (E)-tert-butyl 3-(3-(1-isopropyl-2-(3-methoxybenzoyl)hydrazinyl)-3-oxoprop-1-enyl)-1H-indole-1-carboxylate]
activity at 10 µM [1]: 74.8% | inhibition at 10 µM [1]: 20 to 30% | pIC50 [2]: < 4.00

CC(C)CCn1cc(/C=C/C(=O)N(NC(=O)c2ccc(F)cc2)C(C)C)c2ccccc21 [Example 46, (E)-4-fluoro-N′-(3-(1-isopentyl-1H-indol-3-yl)acryloyl)-N′-isopropylbenzohydrazide]
activity at 10 µM [1]: 63.5% | inhibition at 10 µM [1]: 30 to 40% | pIC50 [2]: 6.00

CC(C)(C)OC(=O)n1cc(/C=C/C(=O)NNS(=O)(=O)c2ccccc2)c2ccccc21 [Example 17, (E)-tert-butyl 3-(3-oxo-3-(2-(phenylsulfonyl)hydrazinyl)prop-1-enyl)-1H-indole-1-carboxylate]
activity at 10 µM [1]: 81.7% | pIC50 [2]: < 4.00

CC(C)N(NC(=O)c1ccccc1)C(=O)/C=C/c1cn(C(=O)c2ccccc2)c2ccccc12 [Example 32, (E)-N′-(3-(1-benzoyl-1H-indol-3-yl)acryloyl)-N′-isopropylbenzohydrazide]
activity at 10 µM [1]: 91.4% | pIC50 [2]: 5.24
